Measured values published in US10925874B2, “Substituted pyrazolopyrimidines as glucocerebrosidase activators” (The United States of America, as Represented by the …, priority 2010, dated 2021).

Molecular target: T1, N370S glucocerebrosidase from human spleen homogenate (Homo sapiens, UniProt P04062, N409S)
T1 construct: N370S glucocerebrosidase from human spleen homogenate as the enzyme preparation; from tissue; host or cells: human spleen homogenate
T1 sequence (P04062 40-536 N409S): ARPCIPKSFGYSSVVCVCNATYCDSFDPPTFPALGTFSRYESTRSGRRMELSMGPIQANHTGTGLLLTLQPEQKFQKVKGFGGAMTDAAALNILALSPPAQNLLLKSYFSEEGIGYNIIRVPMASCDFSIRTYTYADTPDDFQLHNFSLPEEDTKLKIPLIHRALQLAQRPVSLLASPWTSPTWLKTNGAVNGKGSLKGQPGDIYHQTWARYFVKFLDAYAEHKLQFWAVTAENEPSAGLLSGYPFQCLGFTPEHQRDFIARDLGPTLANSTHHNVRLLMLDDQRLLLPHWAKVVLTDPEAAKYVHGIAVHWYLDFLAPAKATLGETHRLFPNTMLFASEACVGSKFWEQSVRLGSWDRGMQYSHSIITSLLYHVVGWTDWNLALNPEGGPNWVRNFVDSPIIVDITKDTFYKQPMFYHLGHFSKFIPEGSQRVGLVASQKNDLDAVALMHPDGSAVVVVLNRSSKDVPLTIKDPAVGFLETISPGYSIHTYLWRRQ
Test: qHTS fluorogenic enzyme assay for activators of N370S glucocerebrosidase (4-methylumbelliferyl-beta-D-glucopyranoside substrate)
Assay type: biochemical
Settings: pH 5.0, 37° C. 40 min
From the text: qHTS Assay for Inhibitors and Activators of N370S glucocerebrosidase as a Potential Chaperone Treatment of Gaucher Disease: Primary Screen Confirmation
This is a fluorogenic enzyme assay with 4-methylumbelliferyl-beta-D-glucopyranoside as the substrate and N370S glucocerebrosidase from human spleen homogenate as the enzyme preparation. Upon the hydrolysis of this fluorogenic substrate, the resulting product, […] which can be detected by a standard fluorescence plate reader. Data were normalized to the controls for basal activity (without enzyme) and 100% activity (with enzyme). The AC50 values were determined from concentration-response data modeled with the standard Hill equation.
Human spleen homogenate is prepared as follows by homogenizing spleen with assay buffer containing 50 mM citric acid (titrated with potassium phosphate to pH 5.0), 100 mM potassium chloride, 10 mM sodium chloride, 1 mM magnesium chloride, 0.01% Tween-20. The protein concentration of the human spleen homogenate is approximated 1.35 ug/ul.
The assay is performed in 1536 well plates according to the following protocol. (1) 2 ul spleen homogenate ([…] final) is added to each well. (2) 23 nL test compound in DMSO solution is added to each well. The final concentration of compound in the test well is 0.5 nM to 58 uM. (3) 2 ul of substrate (1 mM final) are added to each well. (4) Incubate assay plates at 37° C. for 40 min. (5) Add 2 ul stop solution (1M NaOH and 1M Glycine mixture, pH 10) to each well. (6) Detect the assay plate in a ViewLux plate reader (PerkinElmer) using 365 nm excitation with emission at 440 nm.

| SMILES | AC50 [µM] |
| --- | --- |
| O=C(Nc1cnn(Cc2ccc(F)cc2)c1)c1cnn2c(C(F)F)cc(-c3ccccc3)nc12 [MLS000662187-01, 7-(difluoromethyl)-N-(1-(4-fluorobenzyl)-1H-pyrazol-4-yl)-5-phenylpyrazolo[1,5-a]pyrimidine-3-carboxamide] | 3.26 |
| CCC(C)c1ccc(NC(=O)c2cnn3c(C(F)F)cc(C)nc23)cc1 (stereo not drawn) [MLS000662237-01, N-(4-sec-butylphenyl)-7-(difluoromethyl)-5-methylpyrazolo[1,5-a]pyrimidine-3-carboxamide] | 5.01 |
| CCc1ccc(NC(=O)c2cnn3c(C(F)F)cc(C)nc23)cc1 [MLS000708974-01, 7-(difluoromethyl)-N-(4-ethylphenyl)-5-methylpyrazolo[1,5-a]pyrimidine-3-carboxamide] | 2.24 |
| Cc1cc(C)n2ncc(C(=O)Nc3ccc(Cl)c(Cl)c3)c2n1 [MLS000765493-01, N-(3,4-dichlorophenyl)-5,7-dimethylpyrazolo[1,5-a]pyrimidine-3-carboxamide] | 7.08 |
| Cc1cc(C)n2ncc(C(=O)Nc3ccc4c(c3)OCO4)c2n1 [NCGC00054856-02, N-(benzo[d][1,3]dioxol-5-yl)-5,7-dimethylpyrazolo[1,5-a]pyrimidine-3-carboxamide] | 6.51 |
| COC(=O)c1ccccc1NC(=O)c1cnn2c1NC(=C1CC1)C=C2C(F)F [NCGC00182132-01, methyl 2-(5-cyclopropylidene-7-(difluoromethyl)-4,5-dihydropyrazolo[1,5-a]pyrimidine-3-carboxamido)benzoate] | 15.8 |
| Cc1ccc(NC(=O)c2cnn3c2NC(=C2CC2)C=C3C(F)F)cc1C [NCGC00182133-01, 5-cyclopropylidene-7-(difluoromethyl)-N-(3,4-dimethylphenyl)-4,5-dihydropyrazolo[1,5-a]pyrimidine-3-carboxamide] | 3.16 |
| Cc1cccc(NC(=O)c2cnn3c2NC(=C2CC2)C=C3C(F)F)n1 [NCGC00182139-01, 5-cyclopropylidene-7-(difluoromethyl)-N-(6-methylpyridin-2-yl)-4,5-dihydropyrazolo[1,5-a]pyrimidine-3-carboxamide] | 12.6 |
| C=C1C=C(C(F)F)n2ncc(C(=O)Nc3ccc(C(C)CC)cc3)c2N1 (stereo not drawn) [NCGC00182141-01, N-(4-sec-butylphenyl)-7-(difluoromethyl)-5-methylene-4,5-dihydropyrazolo[1,5-a]pyrimidine-3-carboxamide] | 2.51 |
| C=C1C=C(C(F)F)n2ncc(C(=O)Nc3cccc(CC)c3)c2N1 [NCGC00182142-01, 7-(difluoromethyl)-N-(3-ethylphenyl)-5-methylene-4,5-dihydropyrazolo[1,5-a]pyrimidine-3-carboxamide] | 10 |
| C=C1C=C(C(F)F)n2ncc(C(=O)N3CCN(c4ccccn4)CC3)c2N1 [NCGC00182144-01, (7-(difluoromethyl)-5-methylene-4,5-dihydropyrazolo[1,5-a]pyrimidin-3-yl)(4-(pyridin-2-yl)piperazin-1-yl)methanone] | 35.5 |
| C=C1C=C(C(F)F)n2ncc(C(=O)NC(C)CC)c2N1 (stereo not drawn) [NCGC00182145-01, N-sec-butyl-7-(difluoromethyl)-5-methylene-4,5-dihydropyrazolo[1,5-a]pyrimidine-3-carboxamide] | 31.6 |
| C=C1C=C(C(F)F)n2ncc(C(=O)NCc3ccc(Cl)cc3Cl)c2N1 [NCGC00182146-01, N-(2,4-dichlorobenzyl)-7-(difluoromethyl)-5-methylene-4,5-dihydropyrazolo[1,5-a]pyrimidine-3-carboxamide] | 10 |
| C=C1C=C(C(F)F)n2ncc(C(=O)NCCc3ccccc3OC)c2N1 [NCGC00182147-01, 7-(difluoromethyl)-N-(2-methoxyphenethyl)-5-methylene-4,5-dihydropyrazolo[1,5-a]pyrimidine-3-carboxamide] | 25.1 |
| C=C1C=C(C(F)F)n2ncc(C(=O)NCc3ccccc3Cl)c2N1 [NCGC00182148-01, N-(2-chlorobenzyl)-7-(difluoromethyl)-5-methylene-4,5-dihydropyrazolo[1,5-a]pyrimidine-3-carboxamide] | 14.1 |
| C=C1C=C(C(F)F)n2ncc(C(=O)NCCc3ccccc3Cl)c2N1 [NCGC00182151-01, N-(2-chlorophenethyl)-7-(difluoromethyl)-5-methylene-4,5-dihydropyrazolo[1,5-a]pyrimidine-3-carboxamide] | 31.6 |
| C=C1C=C(C(F)F)n2ncc(C(=O)N3CCN(c4ccccc4)CC3)c2N1 [NCGC00182152-01, (7-(difluoromethyl)-5-methylene-4,5-dihydropyrazolo[1,5-a]pyrimidin-3-yl)(4-phenylpiperazin-1-yl)methanone] | 31.6 |
| C=C1C=C(C(F)F)n2ncc(C(=O)Nc3ccc(N(CC)CC)cc3)c2N1 [NCGC00182154-01, N-(4-(diethylamino)phenyl)-7-(difluoromethyl)-5-methylene-4,5-dihydropyrazolo[1,5-a]pyrimidine-3-carboxamide] | 11.2 |
| C=C1C=C(C(F)F)n2ncc(C(=O)NCCc3ccc(Cl)cc3)c2N1 [NCGC00182159-01, N-(4-chlorophenethyl)-7-(difluoromethyl)-5-methylene-4,5-dihydropyrazolo[1,5-a]pyrimidine-3-carboxamide] | 15.8 |
| C=C1C=C(C(F)F)n2ncc(C(=O)Nc3ccccc3OCC)c2N1 [NCGC00182160-01, 7-(difluoromethyl)-N-(2-ethoxyphenyl)-5-methylene-4,5-dihydropyrazolo[1,5-a]pyrimidine-3-carboxamide] | 2.51 |
| C=C1C=C(C(F)F)n2ncc(C(=O)NCc3ccccc3C(F)(F)F)c2N1 [NCGC00182161-01, 7-(difluoromethyl)-5-methylene-N-(2-(trifluoromethyl)benzyl)-4,5-dihdyropyrazolo[1,5-a]pyrimidine-3-carboxamide] | 15.8 |
| C=C1C=C(C(F)F)n2ncc(C(=O)NCc3ccccc3OC)c2N1 [NCGC00182162-01, 7-(difluoromethyl)-N-(2-methoxybenzyl)-5-methylene-4,5-dihydropyrazolo[1,5-a]pyrimidine-3-carboxamide] | 14.1 |
| C=C1C=C(C)n2ncc(C(=O)Nc3ccccc3C(=O)OC)c2N1 [NCGC00182165-01, methyl 2-(7-methyl-5-methylene-4,5-dihydropyrazolo[1,5-a]pyrimidine-3-carboxamido)benzoate] | 10 |
| C=C1C=C(C)n2ncc(C(=O)Nc3ccc(F)cc3F)c2N1 [NCGC00182166-01, N-(2,4-difluorophenyl)-7-methyl-5-methylene-4,5-dihydropyrazolo[1,5-a]pyrimidine-3-carboxamide] | 3.98 |
| O=C(Nc1ccc2c(c1)OCCO2)c1cnn2c1NC(=C1CC1)C=C2C(F)F [NCGC00182167-01, 5-cyclopropylidene-7-(difluoromethyl)-N-(2,3-dihydrobenzo[b][1,4]dioxin-6-yl)-4,5-dihydropyrazolo[1,5-a]pyrimidine-3-carboxmaide] | 8.91 |
| O=C(NC1CCCC1)c1cnn2c1NC(=C1CC1)C=C2C(F)F [NCGC00182170-01, N-cyclopentyl-5-cyclopropylidene-7-(difluoromethyl)-4,5-dihydropyrazolo[1,5-a]pyrimidine-3-carboxamide] | 12.6 |
| O=C(Nc1cc(F)ccc1F)c1cnn2c1NC(=C1CC1)C=C2C(F)F [NCGC00182172-01, 5-cyclopropylidene-7-(difluoromethyl)-N-(2,5-difluorophenyl)-4,5-dihydropyrazolo[1,5-a]pyrimidine-3-carboxamide] | 3.16 |
| O=C(Nc1ccc2c(c1)CCC2)c1cnn2c1NC(=C1CC1)C=C2C(F)F [NCGC00182174-01, 5-cyclopropylidene-7-(difluoromethyl)-N-(2,3-dihydro-1H-inden-5-yl)-4,5-dihydropyrazolo[1,5-a]pyrimidine-3-carboxamide] | 3.98 |
| O=C(NC1CCCCC1)c1cnn2c1NC(=C1CC1)C=C2C(F)F [NCGC00182175-01, N-cyclohexyl-5-cyclopropylidene-7-(difluoromethyl)-4,5-dihydropyrazolo[1,5-a]pyrimidine-3-carboxamide] | 12.6 |
| O=C(NC1CCCc2ccccc21)c1cnn2c1NC(=C1CC1)C=C2C(F)F (stereo not drawn) [NCGC00182176-01, 5-cyclopropylidene-7-(difluoromethyl)-N-(1,2,3,4-tetrahydronaphthalen-1-yl)-4,5-dihydropyrazolo[1,5-a]pyrimidine-3-carboxamide] | 14.3 |
